From patent publication US20250179079A1, “HEXAHYDROPYRIDO[4,3-B]INDOLYL KETONE DERIVATIVES USEFUL AS CGAS MODULATORS” (Ventus Therapeutics U.S., Inc., priority 2022, published 2025)
Converted amounts (≈) assume the structure as drawn. Read-outs that look alike come from different tables or passages of the source.

Key:
h-cGAS = h-cGAS (Homo sapiens (Human), UniProt Q8N884); assay: hcGAS Kinase-Glo assay; type: biochemical
[1] = Solubility (e.g., in phosphate buffered saline (PBS)); type: physicochemical; conditions: aqueous buffer, Table D
[2] = Table D comparative data, IC50 range designation, read-out: hcGAS (IC50)
[3] = Table D comparative data, raw data in parentheses, read-out: hcGAS (IC50)
[4] = Table C, raw data in parentheses, read-out: hcGAS IC50

Chain of h-cGAS (Q8N884 whole entry): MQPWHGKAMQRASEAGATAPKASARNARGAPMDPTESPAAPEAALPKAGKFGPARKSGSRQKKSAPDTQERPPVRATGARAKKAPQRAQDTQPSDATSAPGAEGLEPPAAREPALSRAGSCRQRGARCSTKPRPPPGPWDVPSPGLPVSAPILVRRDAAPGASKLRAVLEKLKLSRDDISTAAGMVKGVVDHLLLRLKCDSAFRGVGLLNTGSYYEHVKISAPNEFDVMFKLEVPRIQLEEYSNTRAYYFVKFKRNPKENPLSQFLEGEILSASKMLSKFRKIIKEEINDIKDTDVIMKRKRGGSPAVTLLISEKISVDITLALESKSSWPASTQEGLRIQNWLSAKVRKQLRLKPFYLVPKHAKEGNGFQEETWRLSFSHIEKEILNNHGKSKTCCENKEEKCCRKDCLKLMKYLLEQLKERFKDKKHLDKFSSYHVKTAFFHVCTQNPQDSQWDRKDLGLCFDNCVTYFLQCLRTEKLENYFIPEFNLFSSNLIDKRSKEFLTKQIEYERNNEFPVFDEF

Row | Compound | solubility [1] [µM] | IC50 (h-cGAS; [4]) [nM] | other results
1 | O=C(CO)N1CCn2nc3c(Cl)c(Cl)ccc3c2C1 [Comparative Example C, 1-(7,8-dichloro-3,4-dihydropyrazino[1,2-b]indazol-2(1H)-yl)-2-hydroxyethan-1-one, reference compound] | 76 (≈ 22.8 µg/mL) |  | IC50 (h-cGAS; [2]): > 5000 nM; IC50 (h-cGAS; [3]): 12800 nM
2 | COc1ccnc(C(=O)N2CCc3[nH]c4c(Cl)c(Cl)ccc4c3C2C)n1 (racemic) [Rac-68, (6,7-dichloro-1-methyl-1,3,4,5-tetrahydro-2H-pyrido[4,3-b]indol-2-yl)(4-methoxypyrimidin-2-yl)methanone] |  | 94.5 | IC50 (h-cGAS; read-out: hcGAS activity): < 100 nM
3 | O=C(c1ncc[nH]1)N1CCc2[nH]c3c(Cl)c(Cl)ccc3c2C1 [Compound 5, (6,7-dichloro-1,3,4,5-tetrahydro-2H-pyrido[4,3-b]indol-2-yl)(1H-imidazol-2-yl)methanone] |  | 878 | IC50 (h-cGAS; Table C, IC50 range designation, read-out: hcGAS IC50): 500 to 1000 nM; IC50 (h-cGAS; read-out: hcGAS activity): 500 to 1000 nM
4 | COc1cnc(C(=O)N2CCc3[nH]c4c(Cl)c(Cl)cc(C)c4c3C2C)nc1 (racemic) [Rac-103, (6,7-dichloro-1,9-dimethyl-1,3,4,5-tetrahydro-2H-pyrido[4,3-b]indol-2-yl)(5-methoxypyrimidin-2-yl)methanone] |  | 115 | 

Continued, in another order:

Row | solubility [1] [µM] | IC50 (h-cGAS; [4]) [nM] | Compound | other results
5 | 8.1 (≈ 3.07 µg/mL) |  | Cn1ccc(-c2cc(Cl)c(Cl)c3[nH]c4c(c23)CN(C(=O)CO)CC4)n1 [Comparative Example B, 1-(6,7-dichloro-9-(1-methyl-1H-pyrazol-3-yl)-1,3,4,5-tetrahydro-2H-pyrido[4,3-b]indol-2-yl)-2-hydroxyethan-1-one, reference compound] | IC50 (h-cGAS; [2]): < 100 nM; IC50 (h-cGAS; [3]): 35.2 nM
6 | 42 (≈ 13.2 µg/mL) |  | C[C@H]1c2c([nH]c3c(Cl)c(Cl)ccc23)CCN1C(=O)CO [Compound 157, (S)-1-(6,7-dichloro-1-methyl-1,3,4,5-tetrahydro-2H-pyrido[4,3-b]indol-2-yl)-2-hydroxyethan-1-one] | 
7 | 2 (≈ 0.598 µg/mL) |  | O=C(CO)N1CCc2[nH]c3c(Cl)c(Cl)ccc3c2C1 [Comparative Example A, 1-(6,7-dichloro-1,3,4,5-tetrahydro-2H-pyrido[4,3-b]indol-2-yl)-2-hydroxyethan-1-one] | 
8 | 53 (≈ 20.2 µg/mL) |  | Cn1ccc(-c2cc(Cl)c(Cl)c3nn4c(c23)CN(C(=O)CO)CC4)n1 [Comparative Example D, 1-(7,8-dichloro-10-(1-methyl-1H-pyrazol-3-yl)-3,4-dihydropyrazino[1,2-b]indazol-2(1H)-yl)-2-hydroxyethan-1-one, reference compound] | 
